Results published in patent publication US8778871B2 (Takeda Pharmaceutical Company Limited, priority 2004, dated 2014).
Starred links: 1 amine or outer side, 2 acyl side, 3 side chain; linkers in the order of their positions; H or OH if unused. Non-standard residues stand in square brackets, D forms with d. Residues, ends and D or L forms follow the SMILES beside them. X3 = O=C(CNC(=S)[C@H](Cc1ccccc1)N[*:1])[*:2]; Phe(4-Cl) = N[C@@H](Cc1ccc(Cl)cc1)C(=O)O; 2Nal = N[C@@H](Cc1ccc2ccccc2c1)C(=O)O; Arg(Me) = CNC(=N)NCCC[C@H](N)C(=O)O; Cha = N[C@@H](CC1CCCCC1)C(=O)O; azaGly = NNC(=O)O

Molecular target: T1, hOT7T175 (Homo sapiens, UniProt Q969F8, L364H)
T1 construct: expressed in transfected cells
T1 sequence (Q969F8 whole entry L364H): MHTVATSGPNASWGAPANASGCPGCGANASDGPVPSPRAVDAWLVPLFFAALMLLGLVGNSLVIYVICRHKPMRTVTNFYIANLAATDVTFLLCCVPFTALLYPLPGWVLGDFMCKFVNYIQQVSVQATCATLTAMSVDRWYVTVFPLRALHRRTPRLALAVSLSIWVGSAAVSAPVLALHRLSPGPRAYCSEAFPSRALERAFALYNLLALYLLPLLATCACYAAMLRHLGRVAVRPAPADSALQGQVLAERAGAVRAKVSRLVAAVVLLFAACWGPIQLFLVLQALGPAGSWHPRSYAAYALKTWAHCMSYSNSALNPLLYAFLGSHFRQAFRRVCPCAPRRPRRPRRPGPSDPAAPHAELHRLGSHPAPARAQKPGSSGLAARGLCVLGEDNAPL
Assay: Intracellular Ca ion level-increasing activity using FLIPR (180 seconds; specific activity to Metastin (1-54))
Format: cell-based
Details: hOT7T175/CHO, relative to Metastin (1-54) = 1

Row | Structure (SMILES) | Specific Act. (intracellular Ca ion level-increasing activity, specific activity to Metastin (1-54))
1 | CNC(=N)NCCC[C@H](NC(=O)[C@H](CC(C)C)NC(=O)CNC(=O)[C@H](Cc1ccccc1)NC(=O)[C@H](CO)NC(=O)[C@H](CC(N)=O)NC(=O)[C@H](CC1CCCCC1)NC(=O)[C@H](CC(N)=O)NC(=O)[C@H](N)Cc1ccc(O)cc1)C(=O)N[C@@H](Cc1ccccc1)C(N)=O [Compound No. 171, D-Tyr-Asn-Cha-Asn-Ser-Phe-Gly-Leu-Arg(Me)-Phe-NH2] (H-[dY]N[Cha]NSFGL[Arg(Me)]F-NH2) | 10
2 | CNC(=N)NCCC[C@H](NC(=O)[C@H](CC(C)C)NC(=O)NNC(=O)[C@H](Cc1ccccc1)NC(=O)[C@H](CO)NC(=O)[C@H](CC(N)=O)NC(=O)[C@H](Cc1ccc(Cl)cc1)NC(=O)[C@H](CC(N)=O)NC(=O)[C@H](N)Cc1ccc(O)cc1)C(=O)N[C@@H](Cc1ccccc1)C(N)=O [Compound No. 249, D-Tyr-Asn-Phe(4Cl)-Asn-Ser-Phe-AzaGly-Leu-Arg(Me)-Phe-NH2] (H-[dY]N[Phe(4-Cl)]NSF[azaGly]L[Arg(Me)]F-NH2) | 1
3 | CC(C)C[C@H](NC(=O)CNC(=O)[C@H](Cc1ccccc1)NC(=O)[C@H](CO)NC(=O)[C@H](CC(N)=O)NC(=O)[C@H](Cc1c[nH]c2ccccc12)NC(=O)[C@H](CC(N)=O)NC(=O)[C@@H](N)Cc1ccc(O)cc1)C(=O)N[C@@H](CCCNC(=N)N)C(=O)N[C@@H](Cc1ccc(N)cc1)C(N)=O [Compound No. 131] | 3
4 | CNC(=N)NCCC[C@H](NC(=O)[C@H](CC(C)C)NC(=O)CNC(=O)[C@H](Cc1ccccc1)NC(=O)[C@H](CO)NC(=O)[C@H](CC(N)=O)NC(=O)[C@H](Cc1c[nH]c2ccccc12)NC(=O)[C@H](CCC(N)=O)NC(=O)[C@H](N)Cc1ccc(O)cc1)C(=O)N[C@@H](Cc1ccccc1)C(N)=O [Compound No. 214] (H-[dY]QWNSFGL[Arg(Me)]F-NH2) | 10
5 | CCCNC(=N)NCCC[C@H](NC(=O)[C@H](CC(C)C)NC(=O)CNC(=O)[C@H](Cc1ccccc1)NC(=O)[C@H](CO)NC(=O)[C@H](CC(N)=O)NC(=O)[C@H](Cc1c[nH]c2ccccc12)NC(=O)[C@H](CC(N)=O)NC(=O)[C@H](N)Cc1ccc(O)cc1)C(=O)N[C@@H](Cc1ccccc1)C(N)=O [Compound No. 193] | ½
6 | CC(C)C[C@H](NC(=O)CNC(=O)[C@H](Cc1ccccc1)NC(=O)[C@H](CO)NC(=O)[C@H](CC(N)=O)NC(=O)[C@H](Cc1c[nH]c2ccccc12)NC(=O)[C@H](CC(N)=O)NC(=O)[C@@H](N)Cc1ccc(O)cc1)C(=O)N[C@@H](CCCNC(=N)N)C(=O)N[C@@H](Cc1cccc(F)c1)C(N)=O [Compound No. 197] | 10
7 | CC(C)C[C@H](NC(=O)CNC[C@H](Cc1ccccc1)NC(=O)[C@H](CO)NC(=O)[C@H](CC(N)=O)NC(=O)[C@H](Cc1c[nH]c2ccccc12)NC(=O)[C@H](CC(N)=O)NC(=O)[C@@H](N)Cc1ccc(O)cc1)C(=O)N[C@@H](CCCNC(=N)N)C(=O)N[C@@H](Cc1ccccc1)C(N)=O [Compound No. 163, Tyr-Asn-Trp-Asn-Ser-PheΨ(CH2NH)Gly-Leu-Arg-Phe-NH2] | 1
8 | CC(C)C[C@H](NC(=O)CNC(=S)[C@H](Cc1ccccc1)NC(=O)[C@H](CO)NC(=O)[C@H](CC(N)=O)NC(=O)[C@H](Cc1c[nH]c2ccccc12)NC(=O)[C@H](CC(N)=O)NC(=O)[C@@H](N)Cc1ccc(O)cc1)C(=O)N[C@@H](CCCNC(=N)N)C(=O)N[C@@H](Cc1ccccc1)C(N)=O [Compound No. 166, Tyr-Asn-Trp-Asn-Ser-PheΨ(CSNH)Gly-Leu-Arg-Phe-NH2] (H-YNWNS[X3]LRF-NH2) | 5
9 | CC(C)C[C@H](NC(=O)CNC(=O)[C@H](Cc1ccccc1)NC(=O)[C@H](CO)NC(=O)[C@H](CC(N)=O)NC(=O)[C@H](Cc1c[nH]c2ccccc12)NC(=O)[C@H](CC(N)=O)NC(=O)[C@H](Cc1ccc(O)cc1)NC(=O)[C@H](CC(N)=O)NC(=O)[C@@H]1CCCN1C(=O)[C@@H](N)CC(C)C)C(=O)N[C@@H](CCCNC(=N)N)C(=O)N[C@@H](Cc1ccccc1)C(N)=O [Compound No. 32, reference compound] | 10
10 | CNC(=N)NCCC[C@H](NC(=O)[C@H](CC(C)C)NC(=O)NNC(=O)[C@H](Cc1ccccc1)NC(=O)[C@H](CO)NC(=O)[C@H](CC(N)=O)NC(=O)[C@H](Cc1ccc2ccccc2c1)NC(=O)[C@H](N)Cc1ccc(O)cc1)C(=O)N[C@@H](Cc1ccccc1)C(N)=O [Compound No. 255, D-Tyr-Nal(2)-Asn-Ser-Phe-AzaGly-Leu-Arg(Me)-Phe-NH2] (H-[dY][2Nal]NSF[azaGly]L[Arg(Me)]F-NH2) | 1
11 | CNC(=N)NCCC[C@H](NC(=O)[C@H](CC(C)C)NC(=O)CNC(=O)[C@H](Cc1ccccc1)NC(=O)[C@H](CO)NC(=O)[C@H](CC(N)=O)NC(=O)[C@H](Cc1c[nH]c2ccccc12)NC(=O)[C@H](N)CC(N)=O)C(=O)N[C@@H](Cc1ccccc1)C(N)=O [Compound No. 216] (H-[dN]WNSFGL[Arg(Me)]F-NH2) | 1
12 | CNC(=N)NCCC[C@H](NC(=O)[C@H](CC(C)C)NC(=O)CNC(=O)[C@H](Cc1ccccc1)NC(=O)[C@H](CO)NC(=O)[C@H](CC(N)=O)NC(=O)[C@@H](NC(=O)[C@H](CC(N)=O)NC(=O)[C@H](N)Cc1ccc(O)cc1)[C@@H](C)O)C(=O)N[C@@H](Cc1ccccc1)C(N)=O [Compound No. 205] (H-[dY]NTNSFGL[Arg(Me)]F-NH2) | 10
13 | CNC(=N)NCCC[C@H](NC(=O)[C@@H](NC(=O)CNC(=O)[C@H](Cc1ccccc1)NC(=O)[C@H](CO)NC(=O)[C@H](CC(N)=O)NC(=O)[C@H](Cc1c[nH]c2ccccc12)NC(=O)[C@H](CC(N)=O)NC(=O)[C@H](N)Cc1ccc(O)cc1)C(C)C)C(=O)N[C@@H](Cc1ccccc1)C(N)=O [Compound No. 213] (H-[dY]NWNSFGV[Arg(Me)]F-NH2) | 2
14 | CNC(=N)NCCC[C@H](NC(=O)[C@H](CC(C)C)NC(=O)NNC(=O)[C@H](Cc1ccccc1)NC(=O)[C@H](CO)NC(=O)[C@H](CC(N)=O)NC(=O)[C@H](Cc1ccccc1)NC(=O)[C@H](N)Cc1ccc(O)cc1)C(=O)N[C@@H](Cc1ccccc1)C(N)=O [Compound No. 254, D-Tyr-Phe-Asn-Ser-Phe-AzaGly-Leu-Arg(Me)-Phe-NH2] (H-[dY]FNSF[azaGly]L[Arg(Me)]F-NH2) | 1
15 | CNC(=N)NCCC[C@H](NC(=O)[C@H](CC(C)C)NC(=O)CNC(=O)[C@H](Cc1ccccc1)NC(=O)[C@H](CO)NC(=O)[C@H](CC(N)=O)NC(=O)[C@H](CO)NC(=O)[C@H](CC(N)=O)NC(=O)[C@H](N)Cc1ccc(O)cc1)C(=O)N[C@@H](Cc1ccccc1)C(N)=O [Compound No. 170] (H-[dY]NSNSFGL[Arg(Me)]F-NH2) | 1
